In ChEMBL document CHEMBL1201862, “PubChem BioAssay data set” (2004):
Activity calls are given as the source filed them.

Columns and labels:
Format in all cases: functional
[1] = target: Protein kinase C theta type (Homo sapiens, UniProt Q04759); experiment: Navigating the Kinome. Panel member name: PRKCQ
[2] = target: Ribosomal protein S6 kinase alpha-3 (Homo sapiens, UniProt P51812);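 also: measured within a kinome-wide profiling panel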
[3] = target: Dual specificity protein kinase CLK2 (Homo sapiens, UniProt P49760)
[4] = target: Dual specificity mitogen-activated protein kinase kinase 1 (Homo sapiens, UniProt Q02750); experiment: Navigating the Kinome. Panel member name: MAP2K1
[5] = target: Serine/threonine-protein kinase TBK1 (Homo sapiens, UniProt Q9UHD2); experiment: Navigating the Kinome. Panel member name: TBK1
[6] = target: T1, Tyrosine-protein kinase receptor TYRO3 (Homo sapiens, UniProt Q06418);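 also: TYRO3 value obtained as one member of a kinome-wide profiling panel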
T1 sequence (Q06418 whole entry): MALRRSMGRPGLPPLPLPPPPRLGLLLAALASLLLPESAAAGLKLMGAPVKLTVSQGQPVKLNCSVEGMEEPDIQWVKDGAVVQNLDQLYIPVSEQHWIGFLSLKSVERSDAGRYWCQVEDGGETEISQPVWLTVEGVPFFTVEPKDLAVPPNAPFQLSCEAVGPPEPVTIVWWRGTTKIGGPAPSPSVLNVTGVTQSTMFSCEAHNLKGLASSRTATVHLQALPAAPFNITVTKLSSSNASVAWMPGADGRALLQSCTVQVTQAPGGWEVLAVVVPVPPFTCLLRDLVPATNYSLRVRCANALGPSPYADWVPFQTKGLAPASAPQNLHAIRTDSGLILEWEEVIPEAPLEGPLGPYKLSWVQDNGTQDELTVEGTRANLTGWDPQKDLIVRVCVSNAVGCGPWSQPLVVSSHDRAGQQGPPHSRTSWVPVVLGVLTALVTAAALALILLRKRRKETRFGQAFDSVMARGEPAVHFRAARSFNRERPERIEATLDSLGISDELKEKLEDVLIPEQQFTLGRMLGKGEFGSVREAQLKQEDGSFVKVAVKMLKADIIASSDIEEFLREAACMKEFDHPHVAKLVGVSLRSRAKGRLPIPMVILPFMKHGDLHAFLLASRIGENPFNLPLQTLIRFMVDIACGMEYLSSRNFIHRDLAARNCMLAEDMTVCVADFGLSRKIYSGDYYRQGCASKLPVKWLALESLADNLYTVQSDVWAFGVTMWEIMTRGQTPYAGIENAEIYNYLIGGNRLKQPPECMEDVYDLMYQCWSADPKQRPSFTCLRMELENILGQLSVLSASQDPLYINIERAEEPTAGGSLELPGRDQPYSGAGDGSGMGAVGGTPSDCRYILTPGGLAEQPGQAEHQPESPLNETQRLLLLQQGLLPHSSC

[7] = target: Death-associated protein kinase 3 (Homo sapiens, UniProt O43293);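 also: measured as one member of a kinome-wide profiling panel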
Sequence of Death-associated protein kinase 3 (O43293 whole entry): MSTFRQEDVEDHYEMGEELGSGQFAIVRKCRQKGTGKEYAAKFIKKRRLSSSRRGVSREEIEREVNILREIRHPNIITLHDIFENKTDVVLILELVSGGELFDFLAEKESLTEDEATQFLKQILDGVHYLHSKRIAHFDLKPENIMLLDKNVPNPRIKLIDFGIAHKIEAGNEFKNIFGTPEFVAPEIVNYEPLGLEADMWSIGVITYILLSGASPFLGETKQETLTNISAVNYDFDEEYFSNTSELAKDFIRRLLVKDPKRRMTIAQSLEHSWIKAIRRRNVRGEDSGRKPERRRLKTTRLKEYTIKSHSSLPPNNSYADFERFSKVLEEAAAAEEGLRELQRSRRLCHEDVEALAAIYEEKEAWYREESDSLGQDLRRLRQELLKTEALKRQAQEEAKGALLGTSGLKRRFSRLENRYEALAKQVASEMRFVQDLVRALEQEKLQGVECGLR

[8] = target: Mitogen-activated protein kinase 8 (Homo sapiens, UniProt P45983);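 also: value comes from one member of a kinome-wide kinase profiling panel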
Sequence of Mitogen-activated protein kinase 8 (P45983 whole entry): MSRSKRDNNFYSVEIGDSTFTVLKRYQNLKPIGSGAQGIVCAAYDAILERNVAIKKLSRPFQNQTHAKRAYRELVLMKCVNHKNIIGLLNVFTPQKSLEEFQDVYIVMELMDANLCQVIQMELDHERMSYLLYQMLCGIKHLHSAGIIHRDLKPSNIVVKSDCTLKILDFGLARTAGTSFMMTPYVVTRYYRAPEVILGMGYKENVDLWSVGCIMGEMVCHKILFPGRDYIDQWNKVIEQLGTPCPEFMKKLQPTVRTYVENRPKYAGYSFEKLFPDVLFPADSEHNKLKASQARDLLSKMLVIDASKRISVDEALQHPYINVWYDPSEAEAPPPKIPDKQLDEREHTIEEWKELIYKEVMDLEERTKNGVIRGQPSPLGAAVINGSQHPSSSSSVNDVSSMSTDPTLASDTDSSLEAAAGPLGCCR

[9] = target: Fibroblast growth factor receptor 1 (Homo sapiens, UniProt P11362)
[10] = target: Mitogen-activated protein kinase 9 (Homo sapiens, UniProt P45984);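 also: value from a kinome panel profiling assay, MAPK9 panel entry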
Sequence of Mitogen-activated protein kinase 9 (P45984 whole entry): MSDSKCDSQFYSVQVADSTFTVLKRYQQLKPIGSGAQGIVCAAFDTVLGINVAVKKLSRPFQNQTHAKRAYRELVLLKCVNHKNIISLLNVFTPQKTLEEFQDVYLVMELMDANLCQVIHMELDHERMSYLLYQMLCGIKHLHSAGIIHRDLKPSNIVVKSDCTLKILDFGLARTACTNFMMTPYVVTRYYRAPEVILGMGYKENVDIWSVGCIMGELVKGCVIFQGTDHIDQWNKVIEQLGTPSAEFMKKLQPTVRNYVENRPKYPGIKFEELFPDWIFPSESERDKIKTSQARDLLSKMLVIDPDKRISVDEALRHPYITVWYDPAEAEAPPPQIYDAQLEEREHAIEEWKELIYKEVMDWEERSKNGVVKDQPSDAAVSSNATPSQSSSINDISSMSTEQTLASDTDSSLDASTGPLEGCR

[11] = target: Serine/threonine-protein kinase TAO1 (Homo sapiens, UniProt Q7L7X3)
Sequence of Serine/threonine-protein kinase TAO1 (Q7L7X3 whole entry): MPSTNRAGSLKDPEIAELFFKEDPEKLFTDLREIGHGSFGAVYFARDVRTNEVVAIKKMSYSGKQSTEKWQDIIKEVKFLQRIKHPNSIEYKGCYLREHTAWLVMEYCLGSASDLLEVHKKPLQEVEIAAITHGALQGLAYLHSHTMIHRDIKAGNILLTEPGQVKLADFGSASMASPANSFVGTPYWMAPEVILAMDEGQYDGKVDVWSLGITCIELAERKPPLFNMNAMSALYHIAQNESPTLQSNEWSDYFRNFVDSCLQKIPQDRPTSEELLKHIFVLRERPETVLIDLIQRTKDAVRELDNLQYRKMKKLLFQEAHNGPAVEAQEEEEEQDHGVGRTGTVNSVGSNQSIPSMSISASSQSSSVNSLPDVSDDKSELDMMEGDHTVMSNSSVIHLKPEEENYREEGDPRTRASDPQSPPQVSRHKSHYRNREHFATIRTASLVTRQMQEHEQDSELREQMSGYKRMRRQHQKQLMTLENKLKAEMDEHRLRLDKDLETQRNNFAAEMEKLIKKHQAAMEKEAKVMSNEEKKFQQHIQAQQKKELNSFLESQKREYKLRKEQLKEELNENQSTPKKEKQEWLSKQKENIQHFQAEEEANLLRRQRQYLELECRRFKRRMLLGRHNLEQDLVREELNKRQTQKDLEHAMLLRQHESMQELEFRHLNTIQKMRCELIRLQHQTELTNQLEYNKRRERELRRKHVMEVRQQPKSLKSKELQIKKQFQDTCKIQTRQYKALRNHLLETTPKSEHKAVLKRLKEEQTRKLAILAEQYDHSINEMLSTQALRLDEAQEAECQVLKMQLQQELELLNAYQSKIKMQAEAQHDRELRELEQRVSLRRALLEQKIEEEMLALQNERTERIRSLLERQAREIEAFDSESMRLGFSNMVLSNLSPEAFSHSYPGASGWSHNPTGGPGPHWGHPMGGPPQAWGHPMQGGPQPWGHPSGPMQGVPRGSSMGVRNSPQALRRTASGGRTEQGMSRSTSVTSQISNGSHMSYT

[12] = target: High affinity nerve growth factor receptor (Homo sapiens, UniProt P04629);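 also: NTRK1 tested as one member of a kinome-wide profiling panel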
Sequence of High affinity nerve growth factor receptor (P04629 whole entry): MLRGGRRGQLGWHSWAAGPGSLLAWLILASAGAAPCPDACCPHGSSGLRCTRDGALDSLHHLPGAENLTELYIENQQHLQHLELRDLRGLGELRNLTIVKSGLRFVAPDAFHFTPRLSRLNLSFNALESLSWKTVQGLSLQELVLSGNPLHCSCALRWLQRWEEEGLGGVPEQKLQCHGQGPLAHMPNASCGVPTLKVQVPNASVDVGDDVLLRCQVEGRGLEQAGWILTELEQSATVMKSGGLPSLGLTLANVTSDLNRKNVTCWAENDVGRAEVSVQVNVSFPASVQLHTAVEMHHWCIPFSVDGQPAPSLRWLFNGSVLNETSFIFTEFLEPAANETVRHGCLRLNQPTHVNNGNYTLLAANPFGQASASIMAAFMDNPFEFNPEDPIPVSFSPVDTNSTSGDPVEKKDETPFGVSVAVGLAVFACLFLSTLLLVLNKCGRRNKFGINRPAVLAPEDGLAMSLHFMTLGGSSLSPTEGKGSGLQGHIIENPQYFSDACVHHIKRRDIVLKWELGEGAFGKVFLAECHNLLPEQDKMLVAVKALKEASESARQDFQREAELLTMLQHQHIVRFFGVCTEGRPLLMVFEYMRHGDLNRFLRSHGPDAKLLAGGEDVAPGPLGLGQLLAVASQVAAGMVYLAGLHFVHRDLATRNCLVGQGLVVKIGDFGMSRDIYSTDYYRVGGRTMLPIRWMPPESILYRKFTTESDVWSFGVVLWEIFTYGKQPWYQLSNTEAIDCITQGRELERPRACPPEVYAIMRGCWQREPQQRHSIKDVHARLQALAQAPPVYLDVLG

[13] = target: Platelet-derived growth factor receptor beta (Homo sapiens, UniProt P09619);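 also: value comes from a kinome panel, with PDGFRB tested as one panel member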
[14] = target: Vascular endothelial growth factor receptor 2 (Homo sapiens, UniProt P35968)
[15] = target: G protein-coupled receptor kinase 5 (Homo sapiens, UniProt P34947); experiment: Navigating the Kinome. Panel member name: GPRK5
[16] = target: Cyclin-dependent kinase 8 (Homo sapiens, UniProt P49336); experiment: Navigating the Kinome. Panel member name: CDK8
Sequence of Cyclin-dependent kinase 8 (P49336 whole entry): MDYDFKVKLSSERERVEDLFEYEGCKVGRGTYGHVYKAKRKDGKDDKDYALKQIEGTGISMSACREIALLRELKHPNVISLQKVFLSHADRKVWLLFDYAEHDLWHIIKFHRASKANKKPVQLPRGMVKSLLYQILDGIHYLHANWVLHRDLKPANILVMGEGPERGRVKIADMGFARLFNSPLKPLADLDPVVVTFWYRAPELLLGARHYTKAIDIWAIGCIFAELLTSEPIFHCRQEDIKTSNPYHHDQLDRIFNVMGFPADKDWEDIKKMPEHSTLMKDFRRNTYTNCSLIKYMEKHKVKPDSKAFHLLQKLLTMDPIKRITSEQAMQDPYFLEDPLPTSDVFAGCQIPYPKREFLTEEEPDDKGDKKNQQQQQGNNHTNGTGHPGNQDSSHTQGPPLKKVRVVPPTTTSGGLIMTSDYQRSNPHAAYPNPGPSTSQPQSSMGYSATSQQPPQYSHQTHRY

[17] = target: Vascular endothelial growth factor receptor 1 (Homo sapiens, UniProt P17948);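 also: measured within a kinome-wide profiling panel, FLT1 as the panel member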
Sequence of Vascular endothelial growth factor receptor 1 (P17948 whole entry): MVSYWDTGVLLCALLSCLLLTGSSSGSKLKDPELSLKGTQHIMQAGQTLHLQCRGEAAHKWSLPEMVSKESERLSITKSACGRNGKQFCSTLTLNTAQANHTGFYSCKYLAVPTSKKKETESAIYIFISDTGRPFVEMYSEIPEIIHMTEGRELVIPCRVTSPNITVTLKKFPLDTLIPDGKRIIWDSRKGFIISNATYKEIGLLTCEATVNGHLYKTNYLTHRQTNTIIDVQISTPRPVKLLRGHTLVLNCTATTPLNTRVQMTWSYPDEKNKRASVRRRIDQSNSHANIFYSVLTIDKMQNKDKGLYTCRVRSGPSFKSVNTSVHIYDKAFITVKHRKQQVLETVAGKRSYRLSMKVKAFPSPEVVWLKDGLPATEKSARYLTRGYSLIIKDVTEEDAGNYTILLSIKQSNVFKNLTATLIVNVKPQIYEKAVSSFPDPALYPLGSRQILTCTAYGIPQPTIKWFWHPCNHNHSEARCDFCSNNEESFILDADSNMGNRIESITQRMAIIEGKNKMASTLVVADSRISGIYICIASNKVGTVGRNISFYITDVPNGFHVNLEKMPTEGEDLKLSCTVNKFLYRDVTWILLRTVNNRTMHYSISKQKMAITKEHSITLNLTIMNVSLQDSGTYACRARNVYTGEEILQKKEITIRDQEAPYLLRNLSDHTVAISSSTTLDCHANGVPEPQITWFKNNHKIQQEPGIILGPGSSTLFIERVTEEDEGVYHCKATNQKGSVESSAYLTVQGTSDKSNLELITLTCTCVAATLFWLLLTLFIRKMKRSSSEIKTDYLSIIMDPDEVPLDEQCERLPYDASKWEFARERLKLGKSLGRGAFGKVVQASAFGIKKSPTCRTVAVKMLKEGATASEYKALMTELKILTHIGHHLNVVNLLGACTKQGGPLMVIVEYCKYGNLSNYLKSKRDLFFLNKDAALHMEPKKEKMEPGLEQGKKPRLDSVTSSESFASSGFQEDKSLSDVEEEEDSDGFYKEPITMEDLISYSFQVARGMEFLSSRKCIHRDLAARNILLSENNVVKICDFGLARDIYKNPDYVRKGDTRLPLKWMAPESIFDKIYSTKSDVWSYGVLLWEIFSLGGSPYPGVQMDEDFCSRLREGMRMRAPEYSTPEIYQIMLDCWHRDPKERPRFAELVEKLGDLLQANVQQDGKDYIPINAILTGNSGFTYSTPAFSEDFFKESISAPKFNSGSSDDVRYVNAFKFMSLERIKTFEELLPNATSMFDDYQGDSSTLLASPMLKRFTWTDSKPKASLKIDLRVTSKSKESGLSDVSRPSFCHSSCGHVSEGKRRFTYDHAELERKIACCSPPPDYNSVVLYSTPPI

[18] = target: Cyclin-dependent kinase 9 (Homo sapiens, UniProt P50750);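 also: value from the CDK9 entry of a kinome-spanning kinase panel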
[19] = target: BDNF/NT-3 growth factors receptor (Homo sapiens, UniProt Q16620);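 also: NTRK2 measured as one member of a broad kinome-wide kinase profiling panel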
[20] = target: Calcium/calmodulin-dependent protein kinase type II subunit alpha (Homo sapiens, UniProt Q9UQM7); experiment: Navigating the Kinome. Panel member name: CAMK2A
[21] = target: Mitogen-activated protein kinase 14 (Homo sapiens, UniProt Q16539);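 also: part of a kinome-wide panel, MAPK14 entry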
[22] = target: Eukaryotic elongation factor 2 kinase (Homo sapiens, UniProt O00418)
[23] = target: Testis-specific serine/threonine-protein kinase 2 (Homo sapiens, UniProt Q96PF2);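 also: part of the Navigating the Kinome panel, target entry STK22B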
[24] = target: Cyclin-dependent kinase 2 (Homo sapiens, UniProt P24941);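 also: CDK2 measured as one member of a broad kinome profiling panel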
[25] = target: Proto-oncogene tyrosine-protein kinase ROS (Homo sapiens, UniProt P08922);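 also: ROS1 tested as one member of a kinome-wide kinase panel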
[26] = target: Homeodomain-interacting protein kinase 2 (Homo sapiens, UniProt Q9H2X6);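 also: measured within a kinome-wide kinase profiling panel, HIPK2 being one panel member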
[27] = target: MAP kinase-interacting serine/threonine-protein kinase 2 (Homo sapiens, UniProt Q9HBH9)
Focal adhesion kinase 1 = Focal adhesion kinase 1 (Homo sapiens, UniProt Q05397);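 also: measured as one member of a kinome panel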
[28] = target: Protein-tyrosine kinase 6 (Homo sapiens, UniProt Q13882)
[29] = target: STE20-like serine/threonine-protein kinase (Homo sapiens, UniProt Q9H2G2)
[30] = target: Fibroblast growth factor receptor 3 (Homo sapiens, UniProt P22607)

Ki [2] | Ki [6] | Ki [8] | Ki [9] | Ki [10] | Ki [11] | Ki [12] | Ki [14] | Ki [16] | Ki [17] | Ki [18] | Ki [19] | Compound | Ki [7] | further results
> 3980 nM (inactive) | > 3160 nM (inactive) | > 5010 nM (inactive) | > 3980 nM (inactive) | > 3980 nM (inactive) | > 6310 nM (inactive) | > 3160 nM (inactive) | > 2510 nM (inactive) | > 3980 nM (inactive) | > 3980 nM (inactive) | > 1580 nM (inactive) | > 3980 nM (inactive) | [2H]C([2H])([2H])Oc1cccc(C(C)NC(=O)c2sc(-c3ccncc3)nc2C)c1 (centres undefined) | > 5010 nM (inactive) | Ki [1]: > 2510 nM (inactive); Ki [3]: > 3980 nM (inactive); Ki [4]: > 3160 nM (inactive); Ki [5]: > 3160 nM (inactive); Ki [13]: > 2000 nM (inactive); Ki [15]: 3160 nM (active); Ki [20]: > 3980 nM (inactive); Ki [21]: > 3980 nM (inactive)
15.8 nM (active) | > 2000 nM (inactive) | 2510 nM (active) | > 5010 nM (inactive) | 3160 nM (active) | 631 nM (active) | > 2510 nM (inactive) | > 7940 nM (inactive) | 12.6 nM (active) | > 398 nM (inactive) | 200 nM (active) | > 5010 nM (inactive) | Cc1n[nH]c2ccc(-c3cncc(OCC(N)Cc4ccc(Cl)c(Cl)c4)c3)cc12 (centres undefined) | 126 nM (active) | Ki [22]: 3160 nM (active); Ki [23]: > 1580 nM (inactive); Ki [24]: 25.1 nM (active); Ki [25]: 631 nM (active); Ki [26]: 126 nM (active); Ki [27]: 251 nM (active); Ki (Focal adhesion kinase 1): > 1580 nM (inactive); Ki [28]: > 2510 nM (inactive); Ki [29]: 1580 nM (active); Ki [30]: > 2000 nM (inactive)
